Results reported in article PMC12238723, “Phase I Clinical Trial of CVL218, a Novel PARP1/2 Inhibitor, in Patients with Advanced Solid Tumors” (MedComm, 2025).

Tested on: patients with advanced solid tumors
Test: Treatment-related adverse events (CTCAE v5.0), phase I dose escalation
Assay type: in vivo
Text: This study was a single‐arm, dose‐escalation phase I trial conducted in Sun Yat‐sen University Cancer Center in China. This study assessed CVL218 in patients with histologically or cytologically confirmed advanced solid tumors who were in PD after standard therapeutic regimens or lacked standard treatment options. Inclusion criteria included: age 18–75 years; with at least one measurable and evaluable target lesion per Response Evaluation Criteria in Solid Tumors 1.1 (RECIST 1.1); ECOG performance status of 0 or 1; adequate hematological, renal, cardiac, and hepatic functions and a life expectancy ≥12 weeks. Key exclusion criteria included prior usage of PARP inhibitors; allergic to the research drug or its components; with active, unstable systemic diseases or active, uncontrolled infection; a history of other malignancies within 5 years, and pregnant or lactating women.
CVL218 was administered orally, and this dose‐escalation trial included nine dose levels: 100 mg QD (50 mg BID), 200 mg QD (100 mg BID), 400 mg QD (200 mg BID), 700 mg QD (350 mg BID), 1000 mg QD (500 mg BID), 1200 mg QD (600 mg BID), 1400 mg QD (700 mg BID), 1700 mg QD (850 mg BID), and 2000 mg QD (1000 mg BID). Patients enrolled in the study received a single oral dose on the first day, followed by continuous multiple dosing (twice a day taking 12 h apart) after 72 h, with the treatment cycle lasting 4 weeks. The period during which patients received a single dose is designated as cycle 0 (C0), lasting 72 h. After this period, patients begin multiple dosing, referred to as cycle 1 (C1). An initial accelerated titration design was employed for the three lowest dose groups, and the “3+3” design was applied starting with the 300 mg BID cohort.
The primary objectives were to assess safety and tolerability as well as to determine the MTD, DLT, and dose recommended for further study. DLT was defined as any of the following events occurring during cycle 0 (including 72 h wash‐out period after a single dose) and cycle 1 per Common Terminology Criteria for Adverse Events (CTCAE) version 5.0: grade 4 anemia; grade 4 neutropenia; grade 3 neutropenia with fever ≥38.5°C; grade 4 thrombocytopenia; grade 3 thrombocytopenia associated with bleeding; grade ≥2 neurotoxicity; any other grade ≥3 nonhematological toxicities (excluding alopecia). The secondary objectives were to assess the PK and preliminary efficacy of CVL218.
Subjects who received at least one dose of CVL218 with postadministration safety records were included in safety analysis set. Subjects who received at least one dose of CVL218 with at least one evaluable PK parameter were included in PK analysis set. Per‐protocol set were used for efficacy analysis. Descriptive statistics of safety were presented per CTCAE v5.0. The PK parameters T max and T 1/2 were shown as the median (min, max) and mean ± SD, respectively. A two‐sided p < 0.05 was considered to indicate statistical significance. Statistical analysis was performed by using GraphPad prism 8.0.2 and R‐4.3.3.

SMILES: CNCc1ccc(-c2cc3cc(F)cc(C(N)=O)c3o2)cc1.Cl [CVL218]
- Headache (200 mg BID, ≥G3): 0 n (%)
- Hypoalbuminemia (200 mg BID, ≥G3): 0 n (%)
- Infusion site pain (200 mg BID, ≥G3): 0 n (%)
- Laboratory test disorders (200 mg BID, ≥G3): 0 n (%)
- Limb discomfort (200 mg BID, ≥G3): 0 n (%)
- Lipase increased (200 mg BID, ≥G3): 0 n (%)
- Metabolic disorders (200 mg BID, ≥G3): 0 n (%)
- Musculoskeletal discomfort (200 mg BID, ≥G3): 0 n (%)
- Musculoskeletal disorders (200 mg BID, ≥G3): 0 n (%)
- Nausea (200 mg BID, ≥G3): 0 n (%)
- Nervous system disorders (200 mg BID, ≥G3): 0 n (%)
- Neutrophil count decreased (200 mg BID, ≥G3): 0 n (%)
- Neutrophil count increased (200 mg BID, ≥G3): 0 n (%)
- Palpitations (200 mg BID, ≥G3): 0 n (%)
- Protein urine present (200 mg BID, ≥G3): 0 n (%)
- Proteinuria (200 mg BID, ≥G3): 0 n (%)
- Rash (200 mg BID, ≥G3): 0 n (%)
- Renal & urinary disorders (200 mg BID, ≥G3): 0 n (%)
- Renal failure (200 mg BID, ≥G3): 0 n (%)
- Reproductive disorders (200 mg BID, ≥G3): 0 n (%)
- Skin disorders (200 mg BID, ≥G3): 0 n (%)
- Urinary occult blood positive (200 mg BID, ≥G3): 0 n (%)
- Vomiting (200 mg BID, ≥G3): 0 n (%)
- WBC count decreased (200 mg BID, ≥G3): 0 n (%)
- WBC count increased (200 mg BID, ≥G3): 0 n (%)
- Infusion site pain (350 mg BID, ALL): 0 n (%)
- WBC count increased (350 mg BID, ALL): 0 n (%)
- ALT increased (350 mg BID, ≥G3): 0 n (%)
- AST increased (350 mg BID, ≥G3): 0 n (%)
- Abdominal distension (350 mg BID, ≥G3): 0 n (%)
- Abdominal pain (350 mg BID, ≥G3): 0 n (%)
- Abdominal pain upper (350 mg BID, ≥G3): 0 n (%)
- Amylase increased (350 mg BID, ≥G3): 0 n (%)
- Anemia (350 mg BID, ≥G3): 0 n (%)
- Any AE related to study drug (350 mg BID, ≥G3): 0 n (%)
- Asthenia (350 mg BID, ≥G3): 0 n (%)
- Blood creatinine increased (350 mg BID, ≥G3): 0 n (%)
- Blood system disorders (350 mg BID, ≥G3): 0 n (%)
- Blood triglycerides increased (350 mg BID, ≥G3): 0 n (%)
- Blood urea increased (350 mg BID, ≥G3): 0 n (%)
- Cardiac disorders (350 mg BID, ≥G3): 0 n (%)
- Chest discomfort (350 mg BID, ≥G3): 0 n (%)
- Constipation (350 mg BID, ≥G3): 0 n (%)
- Decreased appetite (350 mg BID, ≥G3): 0 n (%)
- Diarrhea (350 mg BID, ≥G3): 0 n (%)
- Dizziness (350 mg BID, ≥G3): 0 n (%)
- Erectile dysfunction (350 mg BID, ≥G3): 0 n (%)
- Gastrointestinal disorders (350 mg BID, ≥G3): 0 n (%)
- General disorders (350 mg BID, ≥G3): 0 n (%)
- Gingival bleeding (350 mg BID, ≥G3): 0 n (%)
- Granulocyte count increased (350 mg BID, ≥G3): 0 n (%)
- Headache (350 mg BID, ≥G3): 0 n (%)
- Hypoalbuminemia (350 mg BID, ≥G3): 0 n (%)
- Infusion site pain (350 mg BID, ≥G3): 0 n (%)
- Laboratory test disorders (350 mg BID, ≥G3): 0 n (%)
- Limb discomfort (350 mg BID, ≥G3): 0 n (%)
- Lipase increased (350 mg BID, ≥G3): 0 n (%)
- Metabolic disorders (350 mg BID, ≥G3): 0 n (%)
- Musculoskeletal discomfort (350 mg BID, ≥G3): 0 n (%)
- Musculoskeletal disorders (350 mg BID, ≥G3): 0 n (%)
- Nausea (350 mg BID, ≥G3): 0 n (%)
- Nervous system disorders (350 mg BID, ≥G3): 0 n (%)
- Neutrophil count decreased (350 mg BID, ≥G3): 0 n (%)
- Neutrophil count increased (350 mg BID, ≥G3): 0 n (%)
- Palpitations (350 mg BID, ≥G3): 0 n (%)
- Protein urine present (350 mg BID, ≥G3): 0 n (%)
- Proteinuria (350 mg BID, ≥G3): 0 n (%)
- Rash (350 mg BID, ≥G3): 0 n (%)
- Renal & urinary disorders (350 mg BID, ≥G3): 0 n (%)
- Renal failure (350 mg BID, ≥G3): 0 n (%)
- Reproductive disorders (350 mg BID, ≥G3): 0 n (%)
- Skin disorders (350 mg BID, ≥G3): 0 n (%)
- Urinary occult blood positive (350 mg BID, ≥G3): 0 n (%)
- Vomiting (350 mg BID, ≥G3): 0 n (%)
- WBC count decreased (350 mg BID, ≥G3): 0 n (%)
- WBC count increased (350 mg BID, ≥G3): 0 n (%)
- Infusion site pain (500 mg BID, ALL): 0 n (%)
- WBC count increased (500 mg BID, ALL): 1 (25) n (%)
- ALT increased (500 mg BID, ≥G3): 0 n (%)
- AST increased (500 mg BID, ≥G3): 0 n (%)
- Abdominal distension (500 mg BID, ≥G3): 0 n (%)
- Abdominal pain (500 mg BID, ≥G3): 0 n (%)
- Abdominal pain upper (500 mg BID, ≥G3): 0 n (%)
- Amylase increased (500 mg BID, ≥G3): 0 n (%)
- Anemia (500 mg BID, ≥G3): 0 n (%)
- Any AE related to study drug (500 mg BID, ≥G3): 1 (25.0) n (%)
- Asthenia (500 mg BID, ≥G3): 0 n (%)
- Blood creatinine increased (500 mg BID, ≥G3): 0 n (%)
- Blood system disorders (500 mg BID, ≥G3): 0 n (%)
- Blood triglycerides increased (500 mg BID, ≥G3): 0 n (%)
- Blood urea increased (500 mg BID, ≥G3): 0 n (%)
- Cardiac disorders (500 mg BID, ≥G3): 0 n (%)
- Chest discomfort (500 mg BID, ≥G3): 0 n (%)
- Constipation (500 mg BID, ≥G3): 0 n (%)
- Decreased appetite (500 mg BID, ≥G3): 0 n (%)
- Diarrhea (500 mg BID, ≥G3): 0 n (%)
- Dizziness (500 mg BID, ≥G3): 0 n (%)
- Erectile dysfunction (500 mg BID, ≥G3): 0 n (%)
- Gastrointestinal disorders (500 mg BID, ≥G3): 0 n (%)
- General disorders (500 mg BID, ≥G3): 0 n (%)
- Gingival bleeding (500 mg BID, ≥G3): 0 n (%)
- Granulocyte count increased (500 mg BID, ≥G3): 0 n (%)
- Headache (500 mg BID, ≥G3): 0 n (%)
- Hypoalbuminemia (500 mg BID, ≥G3): 0 n (%)
- Infusion site pain (500 mg BID, ≥G3): 0 n (%)
- Limb discomfort (500 mg BID, ≥G3): 0 n (%)
- Metabolic disorders (500 mg BID, ≥G3): 0 n (%)
- Musculoskeletal discomfort (500 mg BID, ≥G3): 0 n (%)
- Musculoskeletal disorders (500 mg BID, ≥G3): 0 n (%)
- Nausea (500 mg BID, ≥G3): 0 n (%)
- Nervous system disorders (500 mg BID, ≥G3): 0 n (%)
- Neutrophil count decreased (500 mg BID, ≥G3): 0 n (%)
- Neutrophil count increased (500 mg BID, ≥G3): 0 n (%)
- Palpitations (500 mg BID, ≥G3): 0 n (%)
- Protein urine present (500 mg BID, ≥G3): 0 n (%)
- Proteinuria (500 mg BID, ≥G3): 0 n (%)
- Rash (500 mg BID, ≥G3): 0 n (%)
- Renal & urinary disorders (500 mg BID, ≥G3): 0 n (%)
- Renal failure (500 mg BID, ≥G3): 0 n (%)
- Reproductive disorders (500 mg BID, ≥G3): 0 n (%)
- Skin disorders (500 mg BID, ≥G3): 0 n (%)
- Urinary occult blood positive (500 mg BID, ≥G3): 0 n (%)
- Vomiting (500 mg BID, ≥G3): 0 n (%)
- WBC count decreased (500 mg BID, ≥G3): 0 n (%)
- WBC count increased (500 mg BID, ≥G3): 0 n (%)
- Infusion site pain (600 mg BID, ALL): 0 n (%)
- WBC count increased (600 mg BID, ALL): 0 n (%)
- ALT increased (600 mg BID, ≥G3): 0 n (%)
- AST increased (600 mg BID, ≥G3): 0 n (%)
